Values quoted from earlier work, collected in patent US8741809B2, “Liquid pyraclostrobin-containing crop protection formulations” (BASF SE, priority 2008, dated 2014).

Conditions: at 20° C.

Row | Structure (SMILES) | solubility of the respective solvent in water
1 | CC(=O)c1ccccc1 [acetophenone] | (5.5 g/l)
2 | OCc1ccccc1 [benzyl alcohol] | (39 g/l)
3 | O=C1CCCCC1 [cyclohexanone] | (24 g/l)
